Source: patent US8604075B2, “Methods and compositions for improving cognitive function” (The Johns Hopkins University, priority 2008, dated 2013)

How the values were obtained:
[1] = 100 mg/kg/day, chronic subcutaneous administration; cited from earlier work
[2] = test system: memory-impaired aged rats; details: chronic subcutaneous administration, cited from earlier work
[3] = test system: Age-Impaired (AI) Long-Evans rats; assay: Morris Water Maze (MWM) retention trial, spatial memory of aged-impaired rats; format: in vivo, rat; details: retention trial 24 hours after last training trial
Protocol: FIG. 2 depicts the effects of administering levetiracetam on the spatial memory retention of six aged-impaired rats (AI) in a Morris Water Maze (MWM) test. Three treatment conditions were employed: vehicle control, levetiracetam (5 mg/kg/day) and levetiracetam (10 mg/kg/day). The AI rats were trained for two consecutive days, with a one-time treatment prior to the training trials per day. 24 hours later, the AI rats were tested. The time the AI rats, 24 hours after treatment with the different conditions and two days of training, spent swimming in the target quadrant or the target annulus in a memory retention trial is used as a measure of spatial memory retention. The target quadrant refers to the quadrant of the maze (which is a circular pool) where the escape platform is placed during the training trials. The target annulus refers to the exact location of the escape platform during the training trials.
The MWM apparatus consists of a large, circular pool (diameter 1.83 m; height, 0.58 m) filled with water (27° C.) that is made opaque through the addition of non-toxic pigment or some other substance. In the typical “hidden platform” version of the test, rats are trained to find a camouflaged white escape platform (height, 34.5 cm) that is positioned in the center of one quadrant of the maze about 1.0 cm below the water surface. This platform can be retracted to the bottom of the tank or raised to its normal position from outside the maze during behavioral testing. The location of the platform remains constant from trial to trial. […] The behavior of a rat in the pool is recorded by a camera that is suspended 2.5 m above the center of the pool. […]
The MWM protocol is optimized for sensitivity to the effects of aging on cognition and for measures of reliable individual differences within the aged population of out-bred Long-Evans rats (Gallagher et al. Behav. Neurosci. 107:618-626, (1993)). […] At the completion of the protocol using the hidden platform, rats are assessed for cue learning using the visible platform. […]

aged-impaired (AI) rats = assay: Radial Arm Maze (RAM) task with one-hour delay, spatial memory retention of aged-impaired rats; format: in vivo, rat; details: 30-40 minutes before trial, ten AI rats
Protocol: FIG. 3 depicts the effects of administering levetiracetam on the spatial memory retention of ten aged-impaired rats (AI) in an eight-arm Radial Arm Maze (RAM) test. Six treatment conditions were employed: vehicle control, levetiracetam (1.25 mg/kg/day), levetiracetam (2.5 mg/kg/day), levetiracetam (5 mg/kg/day), levetiracetam (10 mg/kg/day) and levetiracetam (20 mg/kg/day). In the RAM task used, there was a one-hour delay between presentation of a subset of arms (5 arms available and 3 arms blocked) and completion of the eight-arm win-shift task (eight arms available). Rats were pre-treated 30-40 minutes before daily trials with a one-time drug/control treatment. The number of errors made by the rats after the delay was used as a measure of spatial memory retention. Errors were defined as instances when rats entered an arm from which food had already been retrieved in the pre-delay component of the trial or when rats re-visited an arm in the post-delay session that had already been visited. […]
The effects of levetiracetam on the spatial memory retention of aged-impaired (AI) rats were assessed in a Radial Arm Maze (RAM) behavioral task using vehicle control and five different dosage levels of levetiracetam (1.25 mg/kg/day, 2.5 mg/kg/day, 5 mg/kg/day, 10 mg/kg/day and 20 mg/kg/day). […]

For `CCCC(CCC)C(=O)O` [sodium valproate, 2-propylpentanoate], the “blood total valproate level” value [1] is listed as 10 μg/ml plasma, the “treatment of age-related cognitive impairment” value ([2]; 50 mg/kg/day) is listed as “not effective” and the “performance in a memory test” value ([2]; 100 mg/kg/day) is listed as “significantly improved”.
In the case of `CC[C@@H](C(N)=O)N1CCCC1=O` [levetiracetam, (2S)-2-(2-oxopyrrolidin-1-yl) butanamide], the “time spent in the target quadrant, performance compared with vehicle” value ([3]; 5 mg/kg/day i.p.) is reported as “did not significantly improve”, the “time spent in the target annulus” value ([3]; 10 mg/kg/day i.p.) is reported as “effectivness of the 10 mg/kg/day levetiracetam treatment was also seen” and the “time spent in the target quadrant” value ([3]; 10 mg/kg/day i.p., vehicle approximately 25%) is reported as “approximately 35 % of total swimming time”. For the same compound, the “average no. of errors ± standard error of the mean (SEM)” value (aged-impaired (AI) rats; 5 mg/kg/day i.p., vehicle 2.00±0.42, p=0.057) was 0.75±0.32 and the “average no. of errors ± SEM” value (aged-impaired (AI) rats; 10 mg/kg/day i.p., vehicle 2.00±0.42, p=0.042) was 0.80±0.27.
